Source: paper PMC7793975, “Design and Optimization of Quinazoline Derivatives: New Non-nucleoside Inhibitors of Bovine Viral Diarrhea Virus” (Frontiers in Chemistry, 2020)
Like-named read-outs stand apart in the source and are kept apart here.

Key:
MDBK cells = test: Cytotoxicity assay (MTS/PMS); settings: MDBK cells, 3 days
Experimental: (§1) (A) Cytotoxicity. Sub-confluent MDBK cell monolayers grown in 96-well plates were treated with 2-fold serial dilutions of each compound in IM. Mock-treated cells were added as control. Cells were incubated and allowed to proliferate for 3 days at 37°C and 5% CO2. Cell viability was then determined by the MTS/PMS method. (B) Antiviral activity. Sub-confluent MDBK cell monolayers grown in 96-well plates were infected with BVDV NADL (MOI = 0.01) and treated with different concentrations of the compounds. Mock-infected cells and mock-treated infected cells were included as controls in each plate. After 3 days at 37°C and 5% CO2, cell viability was determined by the MTS/PMS method, and the percentage of the viral CPE inhibition was calculated.
(§2) MDBK cells were seeded in 96-well plates at a density of 1 × 10^4 cells per well in GM. After 24 h, the culture medium was removed, monolayers were washed twice with phosphate-buffered saline (PBS), and serial dilutions of the test compounds were made in E-MEM supplemented with donor horse serum (DHS, Gibco, IM) and added. Cultures were incubated for 3 days at 37°C, and then, cell viability was determined by the MTS/PMS method according to the manufacturer's instructions (Promega). After incubation for 3 h at 37°C and 5% CO2, the absorbance was determined at 490 nm. The 50% cytotoxic concentration (CC50) was defined as the concentration of compound that inhibited the proliferation of exponentially growing cells by 50% and was calculated by interpolation in dose–response curves.

BVDV type 1 NADL strain = test: Anti-BVDV assay (CPE reduction, MTS/PMS); format: cell-based, Bovine viral diarrhea virus; settings: for EC50: BVDV NADL in MDBK cells, MOI 0.01, 3 days, reduces viral CPE by 50%, Inactive: <50% of inhibition of CPE at MNCC; for SI (CC50/EC50): in vitro selectivity index, MDBK cells / BVDV NADL
Experimental: (A) Cytotoxicity. […] Mock-treated cells were added as control. […] (B) Antiviral activity.
Madin-Darby bovine kidney cells (MDBK NBL-1; ATCC CCL-22) were grown in Eagle's Minimum Essential Medium (E-MEM), supplemented with 10% biotechnological fetal bovine serum (Internegocios, Argentina) (GM) at 37°C and 5% CO2. The BVDV type 1 NADL strain, cytopathic biotype (BVDV-1, ATCC VR 534), was provided by Dr. Laura Weber (INTA Castelar, Argentina).
Then, serial dilutions of the test compounds in IM were added. […] After incubation for 3 days at 37°C and 5% CO2, the culture medium was removed, cell monolayers were washed twice with PBS, and IM supplemented with MTS/PMS was added to each well. The absorbance of each well was read at 490 nm. The EC50 was defined as the concentration of compound that prevented 50% of the virus-induced CPE and was calculated by interpolation in dose–response curves.

[1] = Cytotoxicity assay (MTS/PMS); settings: bovine
Experimental: as §1, §2

[2] = Bovine viral diarrhea virus isolates and strains, MDBK, 72 h, read-out: EC50

SMILES | MNCC (maximum non-cytotoxic concentration) (MDBK cells) [µM] | EC50 (BVDV type 1 NADL strain) | CC50 at 3 days ([1]; MDBK cells) [µM] | EC50 (BVDV type 1 NADL strain; [2]) [µM] | SI (CC50/EC50) (BVDV type 1 NADL strain) | CC50 at 3 days [1] [µM]
COc1ccc(Nc2nc(-c3ccccc3)nc3ccccc23)cc1 [Compound 1.3] | 6.0 ± 0.2 | Inactive |  |  |  | 
CN(C)c1ccc(-c2nc(N3CCN(CCO)CC3)c3ccccc3n2)cc1 [Compound 1.18, 2-(4-{2-[4-(N,N-Dimethylamino)phenyl]quinazolin-4-yl}piperazin-1-yl)ethanol] | 26.1 ± 1.2 |  | 61 ± 2.5 | 3.5 ± 0.6 | 17.4 | 
CN1CCN(c2nc(-c3ccc([N+](=O)[O-])cc3)nc3ccccc23)CC1 [Compound 1.14, 4-(4-Methylpiperazin-1-yl)-2-(4-nitrophenyl)quinazoline] | 8.7 ± 1.6 | Inactive | 13 ± 3.4 |  |  | 
c1ccc(-c2nc(NCCN3CCOCC3)c3ccccc3n2)cc1 [Compound 1, N-(2-morpholinoethyl)-2-phenylquinazolin-4-amine] | 10.9 ± 1.4 |  | 55.9 ± 8.2 | 9.7 ± 0.5 | 5.8 | 
c1ccc(CN2CCC(Nc3nc(-c4ccccc4)nc4ccccc34)CC2)cc1 [Compound 1.11, N-(1-Benzylpiperidin-4-yl)-2-phenylquinazolin-4-amine] | 7.5 ± 0.1 | Inactive | 22.2 ± 1.2 |  |  | 
c1ccc(CNc2nc(-c3ccccc3)nc3ccccc23)cc1 [Compound 1.4] | 6.0 ± 0.3 | Inactive |  |  |  | 
[O-][n+]1ccc(CNc2nc(-c3ccccc3)nc3ccccc23)cc1 [Compound 1.13, 4-{[(2-Phenylquinazolin-4-yl)amino]methyl}pyridine 1-oxide] |  | Inactive | > 100 |  |  | 
Clc1ccc2c(NCCN3CCCCC3)ncnc2c1 [Compound 1.23, 7-Chloro-N-[2-(Piperidin-1-yl)ethyl]quinazolin-4-amine] |  |  | > 100 | 4.1 ± 2.2 | >24.4 | 
FC(F)(F)c1cccc(CNc2nc(-c3ccccc3)nc3ccccc23)c1 [Compound 1.5] | 6.0 ± 0.1 | Inactive |  |  |  | 
O=[N+]([O-])c1ccc(-c2nc(NCCN3CCCCC3)c3ccccc3n2)cc1 [Compound 1.15, 2-(4-Nitrophenyl)-N-[2-(piperidin-1-yl)ethyl]quinazolin-4-amine] | 14.6 ± 3.1 |  | 30.2 ± 0.5 | 5.8 ± 0.6 | 5.2 | 
Clc1ccc2c(NCCN3CCOCC3)ncnc2c1 [Compound 1.21, 7-Chloro-N-(2-Morpholinoethyl)quinazolin-4-amine] | 17.3 ± 5.2 |  | 59.3 ± 10.7 | 2.3 ± 0.5 | 25.8 | 
CC1(C)CC(Nc2nc(-c3ccccc3)nc3ccccc23)CC(C)(C)N1 [Compound 1.12, 2-Phenyl-N-(2,2,6,6-tetramethylpiperidin-4-yl)quinazolin-4-amine] | 3.3 ± 0.7 |  | 7.4 ± 0.03 | 1.4 ± 0.3 | 5.3 | 
CN(C)CCCNc1nc(-c2ccccc2)nc2ccccc12 [Compound 1.7, N^1,N^1-Dimethyl-N^3-(2-phenylquinazolin-4-yl)propane-1,3-diamine] | 18.6 ± 2.6 |  | 57 ± 0.01 | 4.6 ± 1 | 12.4 | 
OCCN1CCN(c2nc(-c3ccc(Cl)cc3Cl)nc3ccccc23)CC1 [Compound 1.17, 2-{4-[2-(2,4-Dichlorophenyl)quinazolin-4-yl]piperazin-1-yl}ethanol] | 17.4 ± 3.0 | Inactive | 31.5 ± 5.7 |  |  | 
c1ccc(-c2nc(NCc3cccnc3)c3ccccc3n2)cc1 [Compound 1.1] | 12.0 ± 0.1 | Inactive^f |  |  |  | 
Cc1ccc(CNc2nc(-c3ccccc3)nc3ccccc23)cc1 [Compound 1.2] | 6.0 ± 0.2 | Inactive |  |  |  | 
c1ccc(-c2nc(NCCN3CCCCC3)c3ccccc3n2)cc1 [Compound 1.10, 2-Phenyl-N-[2-(Piperidin-1-yl)ethyl]quinazolin-4-amine] | 6.4 ± 1.1 |  | 19.6 ± 6.3 | 1.4 ± 0.8 | 14.0 | 
CCCCCCNc1nc(-c2ccccc2)nc2ccccc12 [Compound 1.6, N-Hexyl-2-phenylquinazolin-4-amine] | 12.0 ± 0.2 | Inactive |  |  |  | 
COc1ccc(-c2nc(N3CCN(C)CC3)c3ccccc3n2)cc1 [Compound 1.19, 2-(4-Methoxyphenyl)-4-(4-Methylpiperazin-1-yl)quinazoline] | 18.3 ± 0.3 |  | 37.1 ± 0.2 | 12.8 ± 0.3 | 2.9 | 
O=[N+]([O-])c1ccc(-c2nc(N3CCN(CCO)CC3)c3ccccc3n2)cc1 [Compound 1.16, 2-{4-[2-(4-Nitrophenyl)quinazolin-4-yl]piperazin-1-yl}ethanol] | 5.9 ± 1.4 | Inactive | 12 ± 2.1 |  |  | 
CN1CCN(c2nc(-c3ccccc3)nc3ccccc23)CC1 [Compound 1.8, 4-(4-Methylpiperazin-1-yl)-2-phenylquinazoline] | 19.8 ± 4.0 |  | 68 ± 8.4 | 1.4 ± 0.1 | 48.6 | 
OCCN1CCN(c2ncnc3cc(Cl)ccc23)CC1 [Compound 1.22, 2-[4-(7-Chloroquinazolin-4-yl)piperazin-1-yl]ethan-1-ol] |  |  | > 100 | 25.8 ± 1.2 |  | 
CN1CCN(c2ncnc3cc(Cl)ccc23)CC1 [Compound 1.24, 7-Chloro-4-(4-Methylpiperazin-1-yl)quinazoline] |  |  |  | 9.3 ± 2.1 | >10.8 | > 100
Cc1ccc(-c2nc(N3CCN(CCO)CC3)c3ccccc3n2)cc1 [Compound 1.20, 2-{4-[2-(p-Tolyl)quinazolin-4-yl]piperazin-1-yl}ethanol] | 30.5 ± 2.1 |  | 55.4 ± 4 | 8.5 ± 3.4 | 6.5 | 
